Results on 16 molecules are retold here after patent US12286632B2, “Rationally-designed synthetic peptide shuttle agents for delivering polypeptide cargos from an extracellular space to the cytosol and/or nucleus of a target eukaryotic cell, uses thereof, methods and kits relating to same” (Feldan Bio Inc., priority 2016, dated 2025).

Read-outs that look alike come from different tables or passages of the source. Ends that are not written are not given here. Peptide text beside a SMILES is read from it.

Series [1] is described as follows: in vitro. As to conditions: human, HeLa cells.
For series [2], the system named is HeLa cells. The series can be described thus: Plasmid DNA (pEGFP-C1) transfection by peptides (% cells with GFP signal, cell viability). The settings on record: DNA transfection in HeLa cells using peptides; pEGFP-C1 plasmid.
Series [3] has as its system HeLa cells. The series can be described thus: FITC-labeled anti-tubulin antibody transduction assay (flow cytometry, cell viability, microscopy). As to conditions: FITC-labeled anti-tubulin antibody 0.5 μM, HeLa, 1 hour; shuttle 3.5 μM. How it is done: The delivery and microscopy protocols are described in Example 3.
HeLa cells were cultured and tested in the protein transduction assay described in Example 3.1. […] The cells were subjected to flow cytometry analysis as described in Example 3.3.
A general note: In flow cytometry, cells or beads pass a laser one at a time.

A short description of series [4]: in vitro. As to conditions: human, HeLa cells; for viability: Cell viability (%) (±St Dev.; n = 3); for viability at 1 min, 10 µM / viability at 1 min, 8 µM / viability at 2 min, 5 µM: Cell viability (%) (±St. Dev.; n = 3).
In series [5] the test system is HeLa cells. The series can be described thus: GFP-NLS protein transduction assay (flow cytometry: Pos cells %, viability %, relative fluorescence intensity; microscopy). The settings on record: for Mean % cells with GFP signal (±St. Dev.; n = 3): HeLa cells.
Series [6] has as its system HeLa cells. As to conditions: human, 10 s, 50 µM.
A short description of series [7]: in vitro. As to conditions: human, HCC-78 cells.
A short description of series [8]: in vitro. As to conditions: human, NCI-H196 cells.
Series [9] can be described thus: Plasmid DNA (pEGFP-C1) transfection by peptides (% cells with GFP signal, cell viability). The settings on record: human, HeLa cells.
Series [10] can be described thus: in vitro. As to conditions: human, THP-1 cells.
Description: One day before the transduction assay was performed, cells in exponential growth phase were harvested and plated in a 96-well plate (20,000 cells per well). The cells were incubated overnight in appropriate growth media containing FBS (see Example 1). The next day, in separate sterile 1.5 mL tubes, cargo protein at the indicated concentration was pre-mixed (pre-incubated) for 1 or 10 min (depending on the protocol) at 37° C. with the peptide(s) to be tested shuttle agents (0.5 to 5 μM) in 50 μL of fresh medium without serum (unless otherwise specified). The media in wells was removed and the cells were washed three times with freshly prepared phosphate buffered saline (PBS) previously warmed at 37° C. The cells were incubated with the cargo protein/shuttle agent mixture at 37° C. for the indicated time (e.g., 1, 5 or 60 min). After the incubation, the cells were quickly washed three times with freshly prepared PBS and/or heparin (0.5 mg/mL) previously warmed at 37° C. The washes with heparin were required for human THP-1 blood cells to avoid undesired cell membrane-bound protein background in subsequent analyses (microscopy and flow cytometry). The cells were finally incubated in 50 μL of fresh medium with serum at 37° C. before analysis.
One day before the transduction assay was performed, suspension cells in exponential growth phase were harvested and plated in a 96-well plate (20,000 cells per well). The cells were incubated overnight in appropriate growth media containing serum (see Example 1). The next day, in separate sterile 1.5-mL tubes, peptides were diluted in sterile distilled water at room temperature (if the cargo is or comprised a nucleic acid, nuclease-free water was used). Cargo protein(s) were then added to the peptides and, if necessary, sterile PBS or cell culture medium (serum-free) was added to obtain the desired concentrations of shuttle agent and cargo in a sufficient final volume to resuspend the cells (e.g., 10 to 100 μL per well in a 96-well plate). The shuttle agent/peptide was then immediately used for experiments. At least three controls were included for each experiment, including: (1) peptide alone (e.g., at highest concentration tested); (2) cargo alone; and (3) without any cargo or shuttle agent. The cells were centrifuged for 2 minutes at 400g, the medium was then removed and the cells were resuspended in PBS previously warmed at 37° C. The cells were centrifuged again 2 minutes at 400g, the PBS removed, and the cells were resuspended with the cargo protein/peptide mixture at 37° C. for the desired length of time. After that, 200 μL of complete medium was added directly on the cells. Cells were centrifuged for 2 minutes at 400g and the medium was removed. The pellet was resuspended and washed in 200 μL of PBS previously warmed at 37° C. After another centrifugation, the PBS was removed and the cells were resuspended in 50 μL of trypsin-EDTA solution for 2 min. 200 of complete medium was directly added and cells were centrifuged for 2 minutes at 400g. The medium was removed and the cells were resuspended in 200 μL of complete medium.
The cells incubated in 50 μL of fresh medium were directly observed by microscopy (Bright-field and fluorescence) at different power fields (4× to 40×). The cells were observed using a CoolSNAP-PRO™ camera (Series A02D874021) and images were acquired using the Image-Proplus™ software.
The fluorescence of GFP was quantified using flow cytometry (Accuri C6, Becton, Dickinson and Company (BD)).

What is called viability is a read-out of living cells in per cent, often relative to untreated cells. A lower viability goes with a greater loss of cells. As for `CC[C@H](C)[C@H](NC(=O)[C@H](CCCCN)NC(=O)[C@H](CCCCN)NC(=O)[C@H](Cc1ccccc1)NC(=O)[C@H](CC(C)C)NC(=O)[C@H](CCCCN)NC(=O)[C@H](Cc1c[nH]c2ccccc12)NC(=O)[C@@H](N)CCCCN)C(=O)NCC(=O)N[C@@H](C)C(=O)N[C@H](C(=O)N[C@@H](CC(C)C)C(=O)N[C@@H](CCCCN)C(=O)N[C@H](C(=O)N[C@@H](CC(C)C)C(=O)N[C@H](C(=O)N[C@H](C(=O)NCC(=O)N[C@@H](CCCNC(=N)N)C(=O)N[C@@H](CCC(N)=O)C(=O)N[C@H](C(=O)N[C@@H](CCCCN)C(=O)N[C@H](C(=O)N[C@@H](Cc1c[nH]c2ccccc12)C(=O)N[C@@H](Cc1ccccc1)C(=O)N[C@@H](CCC(N)=O)C(=O)N[C@@H](CC(N)=O)C(=O)N[C@@H](CCCNC(=N)N)C(=O)N[C@@H](CCCNC(=N)N)C(=O)N[C@@H](CCSC)C(=O)N[C@@H](CCCCN)C(=O)N[C@@H](Cc1c[nH]c2ccccc12)C(=O)N[C@@H](CCCCN)C(=O)N[C@@H](CCCCN)C(=O)N[C@@H](CS)C(=O)O)[C@@H](C)CC)[C@@H](C)CC)[C@@H](C)O)[C@@H](C)O)C(C)C)C(C)C` [CM18-Pen-Cys], the viability in the series “in vitro [1]” worked out at 16.1 ± 0.12%. Further, the “Mean % cells with GFP signal (±St. Dev.; n = 3)” value (from here on “Mean % cells with GFP signal”) with HeLa cells [2] is reported as 0.01 ± 0.0%.

For the molecule `CC[C@H](C)[C@H](NC(=O)[C@H](CCCCN)NC(=O)[C@H](CCCCN)NC(=O)[C@H](Cc1ccccc1)NC(=O)[C@H](CC(C)C)NC(=O)[C@H](CCCCN)NC(=O)[C@H](Cc1c[nH]c2ccccc12)NC(=O)[C@@H](N)CCCCN)C(=O)NCC(=O)N[C@@H](C)C(=O)N[C@H](C(=O)N[C@@H](CC(C)C)C(=O)N[C@@H](CCCCN)C(=O)N[C@H](C(=O)N[C@@H](CC(C)C)C(=O)N[C@H](C(=O)N[C@H](C(=O)NCC(=O)N[C@@H](CCCNC(=N)N)C(=O)N[C@@H](CCC(N)=O)C(=O)N[C@H](C(=O)N[C@@H](CCCCN)C(=O)N[C@H](C(=O)N[C@@H](Cc1c[nH]c2ccccc12)C(=O)N[C@@H](Cc1ccccc1)C(=O)N[C@@H](CCC(N)=O)C(=O)N[C@@H](CC(N)=O)C(=O)N[C@@H](CCCNC(=N)N)C(=O)N[C@@H](CCCNC(=N)N)C(=O)N[C@@H](CCSC)C(=O)N[C@@H](CCCCN)C(=O)N[C@@H](Cc1c[nH]c2ccccc12)C(=O)N[C@@H](CCCCN)C(=O)N[C@@H](CCCCN)C(=O)N[C@@H](CS)C(=O)O)[C@@H](C)CC)[C@@H](C)CC)[C@@H](C)O)[C@@H](C)O)C(C)C)C(C)C` [CM18-Penetratin-Cys], the “FIG. 19B Cell viability (%) (± St. Dev.; n = 3)” value in the series on HeLa cells [3] turned out to be 73 ± 9.5%.

Take `CC(C)C[C@H](NC(=O)[C@H](CCCNC(=N)N)NC(=O)[C@H](CCC(=O)O)NC(=O)CNC(=O)[C@H](CCC(N)=O)NC(=O)[C@@H](NC(=O)[C@H](Cc1c[nH]c2ccccc12)NC(=O)[C@H](CC(C)C)NC(=O)[C@H](CCCCN)NC(=O)[C@H](CC(C)C)NC(=O)[C@H](CC(C)C)NC(=O)[C@H](CCCNC(=N)N)NC(=O)[C@H](CO)NC(=O)[C@H](Cc1c[nH]c2ccccc12)NC(=O)[C@H](CC(C)C)NC(=O)[C@H](CS)NC(=O)[C@H](CC(C)C)NC(=O)[C@H](CC(C)C)NC(=O)[C@H](Cc1c[nH]cn1)NC(=O)[C@H](Cc1c[nH]cn1)NC(=O)[C@H](Cc1c[nH]cn1)NC(=O)[C@H](Cc1c[nH]cn1)NC(=O)[C@H](Cc1c[nH]cn1)NC(=O)[C@@H](N)Cc1c[nH]cn1)[C@@H](C)O)C(=O)N[C@@H](CCCCN)C(=O)N[C@@H](C)C(=O)N[C@@H](CCCCN)C(=O)N[C@@H](CS)C(=O)N[C@@H](C)C(=O)N[C@@H](CCCCN)C(=O)N[C@@H](C)C(=O)N[C@@H](CS)C(=O)N[C@@H](CCC(=O)O)C(=O)N[C@@H](CCCNC(=N)N)C(=O)O` [FSD24] (H-HHHHHHLLCLWSRLLKLWTQGERLKAKCAKACER-OH; N-terminus and C-terminus assumed): the viability in the series “in vitro [4]” stood at 75.3 ± 3.93%; in the series “in vitro [1]”, 96.5 ± 3.02%. For the same molecule, the “Mean % cells with GFP signal” value in the series with HeLa cells [2] is on record as 0.20 ± 0.00%; in the series with HeLa cells [5] (Table B2, GFP-NLS cargo), 37.48 ± 4.08%.

For the molecule “GLFEALLELLESLWELLLEAYARAAARQARA [JST-PTD4]”, the “Cell viability (%) (±St. Dev.; n = 3)” value in the series with HeLa cells [6] was 98.9 ± 0.57%. In “in vitro [1]”, this molecule yielded a viability of 70.2 ± 5.39%.

“HHHHHHCMKVVWEIVLAKYKGGGGRARAASRRARA [FSD42]” came in with a viability at 1 min, 10 µM in the series “in vitro [4]” of 97.3 ± 1.07%. In “in vitro [1]”, this molecule gave a viability of 96.7 ± 1.96%. Also, the “Mean % cells with GFP signal” value in the series on HeLa cells [2] is given as 0.12 ± 0.02%; with HeLa cells [5] (Table C3, GFP-NLS 10 μM, 10 μM of the peptide, 1 min) it was 1.59 ± 0.39%.

“HHHHHHHHHKWKLFKKIGAVLKVLTTGYARAAARQARA [Peptide 9His-CM18-PTD4]”: the viability in “in vitro [1]” turned out to be 98.72 ± 0.93%. The “Mean % cells with GFP signal” value with HeLa cells [2] is 0.04 ± 0.01%.

As for “HHHHHHLLKLWSRLLKLWTQGRRLKAKRAKAHHHHHH [FSD5]”, the viability in the series “in vitro [4]” is 86 ± 7.45%; in “in vitro [1]”, 93.2 ± 8.63%. For the same molecule, the values for the viability at 1 min, 8 µM in “in vitro [4]”, in the series “in vitro [7]” and in “in vitro [8]” were 85 ± 6.27%, 87.7 ± 6.52% and 69.9 ± 6.38%, respectively. The viability at 1 min, 10 µM was 76 ± 7.45% in “in vitro [4]”, 15.9 ± 0.83% in the series “in vitro [7]” and 47.2 ± 3.54% in the series “in vitro [8]”. In addition, the viability at 2 min, 5 µM in the series “in vitro [4]” was found to be 35.5 ± 4.82%; in the series “in vitro [7]”, 75.3 ± 6.18%; in “in vitro [8]”, 77.2 ± 6.17%.

Molecule “HHHHHHVWKLFWTLLAAIYGRGKARQKRAKRQARG [Peptide F5D25]” yielded a viability in [9] of 98.2 ± 1.19%.

In series [9], HHHHHHYARAAARQARA [Peptide 6His-PTD4] showed a viability of 97.2 ± 1.34%.

In “in vitro [4]”, “KWKLARAFARAIKKLGGSGGGSYARALRRQARTG [FSD10]” had a viability of 79.8 ± 4.73%; a viability at 1 min, 8 µM of 83.4 ± 6.38%; a viability at 1 min, 10 µM of 79.8 ± 6.37%; a viability at 2 min, 5 µM of 55.6 ± 4.28%. For the same molecule, in the series “in vitro [10]”, the viability at 0.5 min, 2 µM was 96.3 ± 2.16%; the viability at 1 min, 1 µM turned out to be 93.5 ± 5.64%; the viability at 1 min, 2 µM came out at 85.6 ± 5.22%; the viability at 0.025 h, 1 µM came to 78.4 ± 6.15%. Also, the viability in “in vitro [1]” is 72.4 ± 8.61%. Besides, in “in vitro [7]”, the viability at 1 min, 8 µM came to 76.1 ± 6.19%; the viability at 1 min, 10 µM was determined as 63.1 ± 5.27%; the viability at 2 min, 5 µM is 83.1 ± 5.99%. Moreover, in the series “in vitro [8]”, the viability at 1 min, 8 µM is 81 ± 8.02%; the viability at 1 min, 10 µM is 85.4 ± 7.66%; the viability at 2 min, 5 µM was found to be 83.2 ± 7.51%.

In “in vitro [4]”, KWKLARAFARAIKKLYARALRRQARTG [FSD12] registered a viability of 67.8 ± 4.83%. Also, the viability in “in vitro [1]” came to 58.6 ± 2.07%. Further, in the series “in vitro [7]”, the viability at 1 min, 8 µM is 66.3 ± 6.03%; the viability at 1 min, 10 µM was 46.5 ± 4.18%; the viability at 2 min, 5 µM was 75.1 ± 6.31%. In “in vitro [8]”, this molecule showed a viability at 1 min, 8 µM of 71.9 ± 6.44%; a viability at 1 min, 10 µM of 72.5 ± 6.29%; a viability at 2 min, 5 µM of 76.5 ± 6.37%.

Consider “RRLSYSRRRFWEAKLAKALAKALAKHLAKALAKALKACEA [SynB3-KALA]”, for which the “Cell viability (%) (±St. Dev.; n = 3)” value with HeLa cells [6] stood at 91.1 ± 0.82%.

For “RRRRRRRRRWEAKLAKALAKALAKHLAKALAKALKACEA [9Arg-KALA]”, the “Cell viability (%) (±St. Dev.; n = 3)” value in the series with HeLa cells [6] stood at 62.8 ± 5.11%.

Consider YARAAARQARA [PTD4, reference compound], for which the “Cell viability (%) (±St. Dev.; n = 3)” value with HeLa cells [6] worked out at 94 ± 4.5%. For the same molecule, in the series “in vitro [1]”, the viability was 98.2 ± 0.69%.

Molecule “YARAAARQARAWEAKLAKALAKALAKHLAKALAKALKACEA [PTD4-KALA]” returned a viability in series [9] of 53.6 ± 3.91%. Also, the “Cell viability (%) (±St. Dev.; n = 3)” value in the series with HeLa cells [5] (Table 10.3b, Protocol B, HeLa, shuttle 50 μM, GFP-NLS 5 μM, 10 seconds) is 91.4 ± 3.67%.

As to “YGRKKRRQRRRCKKALLALALHHLAHLALHLALALKKA [TAT-LAH4]”, the viability in “in vitro [1]” was 96.2 ± 2.7%. Also, the “Mean % cells with GFP signal” value with HeLa cells [2] was 0.15 ± 0.00%.
